Data taken from patent publication US20250197374A1, “WEE1 DEGRADING COMPOUNDS AND USES THEREOF” (BRISTOL-MYERS SQUIBB COMPANY, priority 2023, published 2025).
pEC50: −log10 of the molar value. Like-named read-outs stand apart in the source and are kept apart here.

How the values were obtained:
Assay type in all cases: cell-based
[1] = biological target: T1, WEE1 (Homo sapiens, UniProt P30291+Q96SW2); test: WEE1-ePL degradation assay (293T-LentiX, InCELL Hunter luminescence, 4 hr); conditions: for DC50: LentiX-HEK293T cells expressing WEE1-ePL, 4 hr incubation, read-out: 293T-LentiX WEE1-ePL Degradation 4 hr EC50; for 293T-LentiX WEE1-ePL Degradation 4 hr YMin (%): lower limit of fit, % of DMSO control signal remaining
T1 construct: C-terminal ePL-tagged (DiscoverX, Fremont, CA) full-length WEE1 expression construct; expressed in transfected cells; host or cells: LentiX-HEK293T (Invitrogen), lentivirally transduced; the cells also over-express GSPT1-GN
T1 sequence (P30291 whole entry): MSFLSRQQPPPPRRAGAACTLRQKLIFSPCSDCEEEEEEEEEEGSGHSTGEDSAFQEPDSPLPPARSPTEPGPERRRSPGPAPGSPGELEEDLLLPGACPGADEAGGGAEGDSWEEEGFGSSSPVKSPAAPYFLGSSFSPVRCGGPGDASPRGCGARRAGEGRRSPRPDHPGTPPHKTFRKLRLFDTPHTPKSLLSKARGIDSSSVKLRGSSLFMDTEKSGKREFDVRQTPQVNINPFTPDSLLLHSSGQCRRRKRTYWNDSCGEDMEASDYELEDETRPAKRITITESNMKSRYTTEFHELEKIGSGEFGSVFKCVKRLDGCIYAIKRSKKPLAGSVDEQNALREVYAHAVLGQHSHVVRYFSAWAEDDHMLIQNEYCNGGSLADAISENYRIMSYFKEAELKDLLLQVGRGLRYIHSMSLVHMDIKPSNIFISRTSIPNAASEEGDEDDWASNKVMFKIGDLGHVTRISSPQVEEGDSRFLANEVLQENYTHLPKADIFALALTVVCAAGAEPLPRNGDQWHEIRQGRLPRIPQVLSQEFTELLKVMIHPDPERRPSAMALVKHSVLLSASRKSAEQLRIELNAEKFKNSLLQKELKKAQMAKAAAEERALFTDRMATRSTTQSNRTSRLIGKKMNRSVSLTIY
T1 sequence (Q96SW2 whole entry): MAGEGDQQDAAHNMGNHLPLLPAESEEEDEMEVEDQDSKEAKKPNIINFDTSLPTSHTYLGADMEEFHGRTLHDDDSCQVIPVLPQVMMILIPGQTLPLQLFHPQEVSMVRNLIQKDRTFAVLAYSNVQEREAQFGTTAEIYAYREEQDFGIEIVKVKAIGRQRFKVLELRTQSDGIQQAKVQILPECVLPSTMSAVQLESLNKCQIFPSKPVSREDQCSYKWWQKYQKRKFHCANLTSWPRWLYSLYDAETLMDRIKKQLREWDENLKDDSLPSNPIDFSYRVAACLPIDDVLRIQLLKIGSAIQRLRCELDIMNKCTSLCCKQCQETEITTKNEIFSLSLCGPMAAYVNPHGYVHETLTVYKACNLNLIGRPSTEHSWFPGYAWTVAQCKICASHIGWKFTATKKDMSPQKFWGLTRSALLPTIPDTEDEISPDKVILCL
T1 sequence (Q16531 whole entry partner): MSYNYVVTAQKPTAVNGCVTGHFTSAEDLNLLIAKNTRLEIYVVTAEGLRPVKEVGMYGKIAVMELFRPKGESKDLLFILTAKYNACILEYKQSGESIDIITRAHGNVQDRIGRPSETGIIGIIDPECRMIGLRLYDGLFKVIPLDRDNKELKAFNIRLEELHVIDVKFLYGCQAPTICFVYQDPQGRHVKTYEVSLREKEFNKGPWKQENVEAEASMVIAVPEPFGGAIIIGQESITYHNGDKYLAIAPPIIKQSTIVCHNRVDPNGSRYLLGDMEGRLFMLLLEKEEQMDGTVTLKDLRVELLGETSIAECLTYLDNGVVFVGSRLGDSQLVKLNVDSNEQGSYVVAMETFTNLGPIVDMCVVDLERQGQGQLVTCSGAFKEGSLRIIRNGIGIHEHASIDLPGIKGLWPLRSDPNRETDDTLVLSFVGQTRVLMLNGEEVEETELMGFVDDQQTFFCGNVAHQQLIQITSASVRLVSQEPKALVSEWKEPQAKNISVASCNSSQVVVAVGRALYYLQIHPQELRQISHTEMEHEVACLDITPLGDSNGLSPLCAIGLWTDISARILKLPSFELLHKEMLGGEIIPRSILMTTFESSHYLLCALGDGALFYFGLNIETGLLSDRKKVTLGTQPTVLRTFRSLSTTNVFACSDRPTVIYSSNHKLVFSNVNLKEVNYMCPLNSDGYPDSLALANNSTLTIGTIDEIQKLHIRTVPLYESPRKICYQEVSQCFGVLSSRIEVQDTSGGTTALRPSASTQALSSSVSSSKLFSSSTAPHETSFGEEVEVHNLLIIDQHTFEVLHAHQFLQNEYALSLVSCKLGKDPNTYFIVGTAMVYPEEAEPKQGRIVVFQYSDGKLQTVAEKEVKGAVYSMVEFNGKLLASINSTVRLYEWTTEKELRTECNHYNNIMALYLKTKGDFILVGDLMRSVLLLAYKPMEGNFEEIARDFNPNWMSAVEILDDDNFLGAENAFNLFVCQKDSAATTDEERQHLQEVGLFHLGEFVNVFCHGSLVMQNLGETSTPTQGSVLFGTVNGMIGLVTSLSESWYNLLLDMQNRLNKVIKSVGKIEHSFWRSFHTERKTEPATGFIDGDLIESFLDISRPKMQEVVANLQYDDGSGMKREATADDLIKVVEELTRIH
Procedure, shortened: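 LentiX-HEK293T cells expressing C-terminally ePL-tagged full-length WEE1 plus non-degradable GSPT1-GN (G575N, N-terminal 158 aa truncated). Treated 4 h at 37 °C with a 10-point, 3-fold series from 1 or 10 µM, then read by InCELL Hunter luminescence. EC50 from four-parameter logistic fit, Ymax set by DMSO control.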

[2] = test system: MDA-MB-231 cells; test: MDA-MB-231 cell proliferation assay (Cell-Titer-Glo, 120 hr); conditions: for pEC50: read-out: MDA-MB 231 Cell Prolif. 120 hr EC50; for MDA-MB 231 Cell Prolif. 120 hr YMin (%): minimal percent of DMSO control observed
Procedure, shortened: (§1)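 MKN45 (400/well) and MDA-MB-231 (800/well) cells in RPMI with 10% FBS were exposed to 10-point half-log doses from 1 or 10 uM (0.1% DMSO) for 120 h at 37 °C. Viability was read by CellTiter-Glo luminescence. EC50 came from blank-subtracted, %DMSO four-parameter fits, with Ymin-obs as the lowest %DMSO observed.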

[3] = test system: MKN45 cells; test: MKN45 cell proliferation assay (Cell-Titer-Glo, 120 hr); conditions: for pEC50: read-out: MKN45 Cell Prolif. 120 hr EC50; for MKN45 Cell Prolif. 120 hr YMin (%): minimal percent of DMSO control observed
Procedure, shortened: as §1

[4] = Homo sapiens, MDA-MB-231, 120 h

DC50 [1] | 293T-LentiX WEE1-ePL Degradation 4 hr YMin (%) [1] | pEC50 [2, 4] | pEC50 ([3]; Homo sapiens, MKN-45, 120 h) | pEC50 [2] | pEC50 [3] | SMILES | MDA-MB 231 Cell Prolif. 120 hr YMin (%) [2] | MKN45 Cell Prolif. 120 hr YMin (%) [3]
2 nM | 25.6% | 7.35 | 8.30 |  |  | O=C1CC[C@H](N2Cc3cc(O[C@@H]4CN(Cc5ccc6nc(N7C[C@@H]8CCO[C@@H]8C7)ccc6c5)CC4(F)F)ccc3C2=O)C(=O)N1 (single isomer, unassigned) [Example 17, (S)-3-(5-(((R)-4,4-difluoro-1-((2-((3aS*,6aS*)-hexahydro-5H-furo[2,3-c]pyrrol-5-yl)quinolin-6-yl)methyl)pyrrolidin-3-yl)oxy)-1-oxoisoindolin-2-yl)piperidine-2,6-dione] | 47.2% | 13.2%
3 nM | 29.8% | 7.14 | 8.15 |  |  | COC[C@@H]1CN(Cc2ccc3nc(N4C[C@@H]5CCO[C@@H]5C4)ncc3c2)C[C@H]1Oc1ccc2c(c1)CN([C@H]1CCC(=O)NC1=O)C2=O (single isomer, unassigned) [Example 18, (S)-3-(5-(((3S,4S)-1-((2-((3aS*,6aS*)-hexahydro-5H-furo[2,3-c]pyrrol-5-yl)quinazolin-6-yl)methyl)-4-(methoxymethyl)pyrrolidin-3-yl)oxy)-1-oxoisoindolin-2-yl)piperidine-2,6-dione] | 28.4% | 10.1%
6 nM | 31.4% | 6.98 | 7.92 |  |  | O=C1CC[C@H](N2Cc3cc(O[C@H]4CCN(Cc5cc(F)c6nc(N7C[C@@H]8CCO[C@@H]8C7)ncc6c5)C4)ccc3C2=O)C(=O)N1 (single isomer, unassigned) [Example 19, (S)-3-(5-(((S)-1-((8-fluoro-2-((3aS*,6aS*)-hexahydro-5H-furo[2,3-c]pyrrol-5-yl)quinazolin-6-yl)methyl)pyrrolidin-3-yl)oxy)-1-oxoisoindolin-2-yl)piperidine-2,6-dione] | 58.4% | 10.1%
8 nM | 32.8% |  |  | 6.00 | 7.41 | O=C1CCC(N2C(=O)c3ccc(O[C@H]4CCN(Cc5cc(F)c6nc(C7CCOCC7)ccc6c5)C4)cc3C2=O)C(=O)N1 (single isomer, unassigned) [Example 26, 2-((R*)-2,6-dioxopiperidin-3-yl)-5-(((S)-1-((8-fluoro-2-(tetrahydro-2H-pyran-4-yl)quinolin-6-yl)methyl)pyrrolidin-3-yl)oxy)isoindoline-1,3-dione] | 53.8% | 12.3%
1 nM | 32.9% | 7.19 | 8.30 |  |  | O=C1CC[C@H](N2Cc3cc(O[C@H]4CCN(Cc5cc(F)c6nc(N7C[C@@H]8CCO[C@@H]8C7)ccc6c5)C4)ccc3C2=O)C(=O)N1 (single isomer, unassigned) [Example 81, (S)-3-(5-(((S)-1-((8-fluoro-2-((3aS*,6aS*)-hexahydro-5H-furo[2,3-c]pyrrol-5-yl)quinolin-6-yl)methyl)pyrrolidin-3-yl)oxy)-1-oxoisoindolin-2-yl)piperidine-2,6-dione] | 66.9% | 15.5%
1 nM | 29.8% | 7.66 | 9.00 |  |  | COC[C@@H]1CN(Cc2cc(F)c3nc(N4CCC(OC)C4)ccc3c2)C[C@H]1Oc1ccc2c(c1)CN([C@H]1CCC(=O)NC1=O)C2=O (single isomer, unassigned) [Example 97, (S)-3-(5-(((3S,4S)-1-((8-fluoro-2-((R*)-3-methoxypyrrolidin-1-yl)quinolin-6-yl)methyl)-4-(methoxymethyl)pyrrolidin-3-yl)oxy)-1-oxoisoindolin-2-yl)piperidine-2,6-dione] | 22.0% | 8.7%
1 nM | 29.4% |  |  | 7.89 | 9.00 | COC[C@@H]1CN(Cc2cc(F)c3nc(N4CCC(OC)C4)ccc3c2)C[C@H]1Oc1ccc2c(c1)CN([C@H]1CCC(=O)NC1=O)C2=O (single isomer, unassigned) [Example 98, (S)-3-(5-(((3S,4S)-1-((8-fluoro-2-((S*)-3-methoxypyrrolidin-1-yl)quinolin-6-yl)methyl)-4-(methoxymethyl)pyrrolidin-3-yl)oxy)-1-oxoisoindolin-2-yl)piperidine-2,6-dione] | 25.1% | 9.0%
5 nM | 37.7% | 7.17 | 7.30 |  |  | COC[C@@H]1CN(Cc2cc(F)c3c(ccn3C(=O)C3CCOCC3)c2)C[C@H]1Oc1ccc2c(c1)CN([C@H]1CCC(=O)NC1=O)C2=O [Example 24, (3S)-3-(5-{[(3S,4S)-1-{[7-fluoro-1-(oxane-4-carbonyl)-1H-indol-5-yl]methyl}-4-(methoxymethyl)pyrrolidin-3-yl]oxy}-1-oxo-2,3-dihydro-1H-isoindol-2-yl)piperidine-2,6-dione] | 87.7% | 49.1%
2 nM | 39.0% | 6.89 | 7.46 |  |  | COC[C@@H]1CN(Cc2ccc3c(ccn3C(=O)C3CCOCC3)c2)C[C@H]1Oc1ccc2c(c1)CN([C@H]1CCC(=O)NC1=O)C2=O [Example 25, (3S)-3-(5-{[(3S,4S)-4-(methoxymethyl)-1-{[1-(oxane-4-carbonyl)-1H-indol-5-yl]methyl}pyrrolidin-3-yl]oxy}-1-oxo-2,3-dihydro-1H-isoindol-2-yl)piperidine-2,6-dione] | 80.7% | 25.4%
1 nM | 29.1% | 7.32 | 9.00 |  |  | COC[C@@H]1CN(Cc2cc3ccc(N4CCOCC4)cc3cn2)C[C@H]1Oc1ccc2c(c1)CN([C@H]1CCC(=O)NC1=O)C2=O [Example 28, (3S)-3-(5-{[(3S,4S)-4-(methoxymethyl)-1-{[7-(morpholin-4-yl)isoquinolin-3-yl]methyl}pyrrolidin-3-yl]oxy}-1-oxo-2,3-dihydro-1H-isoindol-2-yl)piperidine-2,6-dione] | 22.1% | 11.2%
1 nM | 26.4% | 7.60 | 8.70 |  |  | COC[C@@H]1CN(Cc2ccc3ncc(N4CCOCC4)cc3c2)C[C@H]1Oc1ccc2c(c1)CN([C@H]1CCC(=O)NC1=O)C2=O [Example 29, (3S)-3-(5-{[(3S,4S)-4-(methoxymethyl)-1-{[3-(morpholin-4-yl)quinolin-6-yl]methyl}pyrrolidin-3-yl]oxy}-1-oxo-2,3-dihydro-1H-isoindol-2-yl)piperidine-2,6-dione] | 17.8% | 8.8%
1 nM | 27.9% | 7.85 | 9.00 |  |  | COC[C@@H]1CN(Cc2cc(F)c3ncc(N4CCOCC4)cc3c2)C[C@H]1Oc1ccc2c(c1)CN([C@H]1CCC(=O)NC1=O)C2=O [Example 30, (S)-3-(5-(((3S,4S)-1-((8-fluoro-3-morpholinoquinolin-6-yl)methyl)-4-(methoxymethyl)pyrrolidin-3-yl)oxy)-1-oxoisoindolin-2-yl)piperidine-2,6-dione] | 12.7% | 7.8%
1 nM | 33.4% | 7.17 | 8.70 |  |  | COC[C@@H]1CN(Cc2cc(F)c3nc(C(C)(C)O)ccc3c2)C[C@H]1Oc1ccc2c(c1)CN([C@H]1CCC(=O)NC1=O)C2=O [Example 32, (3S)-3-(5-{[(3S,4S)-1-{[8-fluoro-2-(2-hydroxypropan-2-yl)quinolin-6-yl]methyl}-4-(methoxymethyl)pyrrolidin-3-yl]oxy}-1-oxo-2,3-dihydro-1H-isoindol-2-yl)piperidine-2,6-dione] | 46.8% | 11.2%
1 nM | 29.3% | 7.55 | 9.00 |  |  | COC[C@@H]1CN(Cc2cc(F)c3nc(COC4CCOCC4)ccc3c2)C[C@H]1Oc1ccc2c(c1)CN([C@H]1CCC(=O)NC1=O)C2=O [Example 33, (3S)-3-(5-{[(3S,4S)-1-({8-fluoro-2-[(oxan-4-yloxy)methyl]quinolin-6-yl}methyl)-4-(methoxymethyl)pyrrolidin-3-yl]oxy}-1-oxo-2,3-dihydro-1H-isoindol-2-yl)piperidine-2,6-dione] | 28.6% | 9.7%
